Results as given in US5395850A, “6,7-epoxy paclitaxels” (Bristol-Myers Squibb Company, priority 1994, dated 1995).
Read-outs that look alike come from different tables or passages of the source.

Key:
[1] = system: human colon carcinoma cells HCT-116; assay: XTT in vitro cytotoxicity assay, HCT-116 human colon carcinoma cells; type: cell-based
Description: (§1) The HCT-116/VM46 cells are cells that have been previously selected for teniposide resistance and express the multi-drug resistance phenotype, including resistance to paclitaxel. Cytotoxicity was assessed in HCT-116 human colon carcinoma cells by XTT (2,3-bis(2-methoxy-4-nitro-5-sulfphenyl)-5-[(phenylamino)carbonyl]2H-tetrazolium hydroxide) assay as reported in D. A. Scudiero, et al., "Evaluation of soluble tetrazolium/formazan assay for cell growth and drug sensitivity in culture using human and other tumor cell lines," Cancer Res. 48:4827-4833, 1988. Cells were plated at 4000 cells/well in 96 well microtiter plates and 24 hours later drugs were added and serial diluted. The cells were incubated at 37° C. for 72 hours at which time the tetrazolium dye, XTT, was added. A dehydrogenase enzyme in live cells reduces the XTT to a form that absorbs light at 450 nm which can be quantitated spectrophotometrically. The greater the absorbance, the greater the number of live cells. The results are expressed as an IC50, which is the drug concentration required to inhibit cell proliferation (i.e., absorbance at 450 nm) to 50% of that of untreated control cells.

[2] = system: human colon carcinoma cells HCT-116/VM46; assay: XTT in vitro cytotoxicity assay, HCT-116/VM46 multi-drug resistant human colon carcinoma cells; type: cell-based
Description: as §1

[3] = HCT-116, 72 h, read-out: IC50 HCT116 (nM)
[4] = HCT-116/VM46, 72 h, read-out: IC50 HCT116/VM46 (nM)
[5] = HCT-116, XTT, 72 hours at 37° C., inhibition of cell proliferation to 50% of untreated control, read-out: IC50 HCT116
[6] = HCT-116/VM46, XTT, 72 hours at 37° C., teniposide-selected cells, multi-drug resistance phenotype incl. resistance to paclitaxel, read-out: IC50 HCT116/VM46

Row | Compound | IC50 [1, 3] [nM] | IC50 [2, 4] [nM] | IC50 [1, 5] [nM] | IC50 [2, 6] [nM]
1 | CC(=O)O[C@H]1C(=O)[C@]2(C)[C@@H]3O[C@@H]3[C@H]3OC[C@@]3(OC(C)=O)[C@H]2[C@H](OC(=O)c2ccccc2)[C@]2(O)C[C@H](OC(=O)[C@H](O)[C@@H](NC(=O)c3ccccc3)c3ccccc3)C(C)=C1C2(C)C [Ia, 6,7-α-Epoxypaclitaxel] | 1.2 | 30.5 |  | 
2 | CC(=O)O[C@H]1C(=O)[C@@]2(C)[C@H]([C@H](OC(=O)c3ccccc3)[C@]3(O)C[C@H](OC(=O)[C@H](O)[C@@H](NC(=O)c4ccccc4)c4ccccc4)C(C)=C1C3(C)C)[C@]1(OC(C)=O)CO[C@@H]1C[C@@H]2O [paclitaxel] |  |  | 1.3 to 3.5 | 244 to 403
3 | CC(=O)O[C@H]1C(=O)[C@]2(C)[C@@H]3O[C@@H]3[C@H]3OC[C@@]3(OC(C)=O)[C@H]2[C@H](OC(=O)c2ccccc2)[C@]2(O)C[C@H](OC(=O)[C@H](O)[C@@H](NC(=O)c3ccccc3)c3ccco3)C(C)=C1C2(C)C [Ic, 3'-Desphenyl-3'-(2-furyl)-6,7-α-epoxypaclitaxel] | 0.6 | 12.3 |  | 
4 | CC(=O)O[C@H]1C(=O)[C@]2(C)[C@@H]3O[C@@H]3[C@H]3OC[C@@]3(OC(C)=O)[C@H]2[C@H](OC(=O)c2ccccc2)[C@]2(O)C[C@H](OC(=O)[C@H](O)[C@@H](NC(=O)OC(C)(C)C)c3ccco3)C(C)=C1C2(C)C [Ib, 3'-N-Debenzoyl-N-t-butoxycarbonyl-3'-desphenyl-3'-(2-furyl)-6,7-α-epoxypaclitaxel] |  |  | 1.3 to 3 | 2.8 to 13.9
5 | CC(=O)O[C@H]1C(=O)[C@]2(C)[C@@H]3O[C@@H]3[C@H]3OC[C@@]3(OC(C)=O)[C@H]2[C@H](OC(=O)c2ccccc2)[C@]2(O)C[C@H](OC(=O)[C@H](O)[C@H](C=C(C)C)NC(=O)OC(C)(C)C)C(C)=C1C2(C)C [Id, 3'-N-Debenzoyl-N-t-butoxycarbonyl-3'-desphenyl-3'-isobutenyl-6,7-α-epoxypaclitaxel] | 1.3 | 3.3 |  | 
